Drawing on the supplement of paper PMC10307832, this text covers relative viability for four cell lines.

Common to all, as to test: relative viability (nuclei count vs DMSO), 5 days (fraction); higher = more cells survive
Compound in assay [1]: CC1(C)CCC(CN2CCN(c3ccc(C(=O)NS(=O)(=O)c4ccc(NCC5CCOCC5)c([N+](=O)[O-])c4)c(Oc4cnc5[nH]ccc5c4)c3)CC2)=C(c2ccc(Cl)cc2)C1 [Venetoclax] + CC(=O)Nc1cccc(-n2c(=O)n(C3CC3)c(=O)c3c(Nc4ccc(I)cc4F)n(C)c(=O)c(C)c32)c1 [Trametinib] (partner 0.02 µM)
The procedure, abridged:
(§1)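 Five library-drug doses in √10 steps were combined with a fixed anchor-drug dose, or a single drug was given alone, by pin tool to lung cancer cell lines in 1536-well plates the day after seeding. Nuclei were stained and counted after 5 days. Relative viability is the nuclei count in treated wells over that in vehicle wells, taken as the median of duplicate plates.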

Compound in assay [2]: CC1(C)CCC(CN2CCN(c3ccc(C(=O)NS(=O)(=O)c4ccc(NCC5CCOCC5)c([N+](=O)[O-])c4)c(Oc4cnc5[nH]ccc5c4)c3)CC2)=C(c2ccc(Cl)cc2)C1 [Venetoclax] + CC(=O)c1c(C)c2cnc(Nc3ccc(N4CCNCC4)cn3)nc2n(C2CCCC2)c1=O [Palbociclib] (partner 0.5 µM)
A digest of the protocol: as §1

Compound in assay [3]: CC1(C)CCC(CN2CCN(c3ccc(C(=O)NS(=O)(=O)c4ccc(NCC5CCOCC5)c([N+](=O)[O-])c4)c(Oc4cnc5[nH]ccc5c4)c3)CC2)=C(c2ccc(Cl)cc2)C1 [Venetoclax] + CC1(C)CCC(c2ccc(Cl)cc2)=C(CN2CCN(c3ccc(C(=O)NS(=O)(=O)c4ccc(N[C@H](CCN5CCOCC5)CSc5ccccc5)c(S(=O)(=O)C(F)(F)F)c4)cc3)CC2)C1 [Navitoclax] (partner 0.5 µM)
The procedure, abridged: as §1

Compound in assay [4]: CC1(C)CCC(CN2CCN(c3ccc(C(=O)NS(=O)(=O)c4ccc(NCC5CCOCC5)c([N+](=O)[O-])c4)c(Oc4cnc5[nH]ccc5c4)c3)CC2)=C(c2ccc(Cl)cc2)C1 [Venetoclax] + C[C@]1(O)C[C@@H](c2nc(-c3ccc4ccc(-c5ccccc5)nc4c3)c3c(N)nccn32)C1 [Linsitinib] (partner 1 µM)
The procedure, abridged:
as §1

In the case of COR-L23, the relative viability came out at 0.528 in assay [1] (first compound 0.01 µM); 0.588 in assay [1] (first compound 0.03162 µM); 0.502 in assay [1] (first compound 0.1 µM); 0.575 in assay [1] (first compound 0.3162 µM); 0.547 in assay [1] (first compound 1 µM); 0.326 in assay [2] (first compound 0.01 µM). Also, the relative viability was 0.283 in assay [2] (first compound 0.03162 µM); 0.184 in assay [2] (first compound 0.1 µM); 0.286 in assay [2] (first compound 0.3162 µM); 0.282 in assay [2] (first compound 1 µM); 0.996 in assay [3] (first compound 0.01 µM); 1.07 in assay [3] (first compound 0.03162 µM). In addition, the relative viability was determined as 0.947 in assay [3] (first compound 0.1 µM); 0.947 in assay [3] (first compound 0.3162 µM); 0.86 in assay [3] (first compound 1 µM); 0.864 in assay [4] (first compound 0.01 µM); 0.953 in assay [4] (first compound 0.03162 µM); 0.879 in assay [4] (first compound 0.1 µM). Also, the relative viability in assay [4] (first compound 0.3162 µM) came to 0.897; in assay [4] (first compound 1 µM) it was 0.815.

Regarding BEN, the relative viability amounted to 1.1 in assay [1] (first compound 0.01 µM); 1.02 in assay [1] (first compound 0.03162 µM); 0.864 in assay [1] (first compound 0.1 µM); 1.04 in assay [1] (first compound 0.3162 µM); 1 in assay [1] (first compound 1 µM); 0.519 in assay [2] (first compound 0.01 µM). The relative viability stood at 0.469 in assay [2] (first compound 0.03162 µM); 0.49 in assay [2] (first compound 0.1 µM); 0.489 in assay [2] (first compound 0.3162 µM); 0.498 in assay [2] (first compound 1 µM); 0.36 in assay [3] (first compound 0.01 µM); 0.0558 in assay [3] (first compound 0.03162 µM). Further, the relative viability in assay [3] (first compound 0.1 µM) was 0.072; in assay [3] (first compound 0.3162 µM), 0.0753; in assay [3] (first compound 1 µM), 0.0581; in assay [4] (first compound 0.01 µM), 0.91; in assay [4] (first compound 0.03162 µM), 0.919; in assay [4] (first compound 0.1 µM), 0.769. Moreover, the figures for the relative viability in assay [4] (first compound 0.3162 µM) and in assay [4] (first compound 1 µM) were 0.842 and 0.997, respectively.

With LK-2, the relative viability in assay [1] (first compound 0.01 µM) was found to be 0.894; in assay [1] (first compound 0.03162 µM) it was 0.762; in assay [1] (first compound 0.1 µM), 0.596; in assay [1] (first compound 0.3162 µM), 0.628; in assay [1] (first compound 1 µM), 0.639; in assay [2] (first compound 0.01 µM), 0.681. The relative viability in assay [2] (first compound 0.03162 µM) stood at 0.682; in assay [2] (first compound 0.1 µM), 0.815; in assay [2] (first compound 0.3162 µM), 0.65; in assay [2] (first compound 1 µM), 0.688; in assay [3] (first compound 0.01 µM), 0.809; in assay [3] (first compound 0.03162 µM), 0.945. Besides, the relative viability in assay [3] (first compound 0.1 µM) is 0.763; in assay [3] (first compound 0.3162 µM), 0.816; in assay [3] (first compound 1 µM), 0.845; in assay [4] (first compound 0.01 µM) it was 0.727; in assay [4] (first compound 0.03162 µM), 0.621; in assay [4] (first compound 0.1 µM), 0.516. Also, the relative viability in assay [4] (first compound 0.3162 µM) stood at 0.548; in assay [4] (first compound 1 µM), 0.551.

With NCI-H460, the relative viability in assay [1] (first compound 0.01 µM) worked out at 0.171; in assay [1] (first compound 0.03162 µM), 0.229; in assay [1] (first compound 0.1 µM), 0.131; in assay [1] (first compound 0.3162 µM), 0.153; in assay [1] (first compound 1 µM), 0.131; in assay [2] (first compound 0.01 µM) it was 0.158. Further, the relative viability is 0.294 in assay [2] (first compound 0.03162 µM); 0.121 in assay [2] (first compound 0.1 µM); 0.216 in assay [2] (first compound 0.3162 µM); 0.144 in assay [2] (first compound 1 µM); 0.996 in assay [3] (first compound 0.01 µM); 1.16 in assay [3] (first compound 0.03162 µM). For the same cell line, the relative viability is 1.1 in assay [3] (first compound 0.1 µM); 1.07 in assay [3] (first compound 0.3162 µM); 1.09 in assay [3] (first compound 1 µM); 0.827 in assay [4] (first compound 0.01 µM); 0.829 in assay [4] (first compound 0.03162 µM); 0.665 in assay [4] (first compound 0.1 µM). Besides, the relative viability was 0.632 in assay [4] (first compound 0.3162 µM) and 0.726 in assay [4] (first compound 1 µM).
